# Test results taken from patent US20250163104A1, “MACROCYCLIC IMMUNOMODULATORS” (priority 2021, published 2025).
# *1 amine or outer side, *2 acyl side, *3 side chain or, on linkers, in order; H or OH if unused. Where a SMILES comes first, the peptide text is derived from it. Bridges are numbered along the chain shown (N, C = ends). [ ]: non-standard residue; d: D form. The star is where a group is joined. Phe(4-COOH) = N[C@@H](Cc1ccc(C(=O)O)cc1)C(=O)O; Bip = N[C@@H](Cc1ccc(-c2ccccc2)cc1)C(=O)O; Orn(N3) = [N-]=[N+]=NCCC[C@H](N)C(=O)O; Phe(3-Me) = Cc1cccc(C[C@H](N)C(=O)O)c1; βAsp = O=C(O)[C@H](CC(=O)[*:2])N[*:1]; 4Pal = N[C@@H](Cc1ccncc1)C(=O)O; Cha = N[C@@H](CC1CCCCC1)C(=O)O; Cit = NC(=O)NCCC[C@H](N)C(=O)O; Gly(cPr) = N[C@H](C(=O)O)C1CC1; Carboxymethyl = O=C(O)C*; Orn = NCCC[C@H](N)C(=O)O; Pra = C#CC[C@H](N)C(=O)O; Dab = NCC[C@H](N)C(=O)O; Abu = CC[C@H](N)C(=O)O; Dap = NC[C@H](N)C(=O)O; Propargyl = C#CC*
# Molecular target: T1, human PD-1 / PD-L1-Ig binding on Jurkat cell line over-expressing human PD-1 (Jurkat-PD-1) (Homo sapiens, UniProt Q15116)
# T1 construct: expressed in transfected cells; host or cells: Jurkat
# T1 sequence (Q15116 25-288): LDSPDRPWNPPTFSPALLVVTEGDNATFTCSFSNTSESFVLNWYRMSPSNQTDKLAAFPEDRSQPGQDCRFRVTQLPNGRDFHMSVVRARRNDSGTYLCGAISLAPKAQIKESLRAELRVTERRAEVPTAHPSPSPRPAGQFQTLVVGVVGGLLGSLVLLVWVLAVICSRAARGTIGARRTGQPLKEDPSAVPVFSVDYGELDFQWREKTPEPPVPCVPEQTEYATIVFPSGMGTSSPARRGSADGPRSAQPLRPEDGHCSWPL
# Assay: Jurkat-PD-1 Cell Binding High-Content Screening Assay (CBA)
# Assay type: cell-based
# Conditions: Jurkat HPD1_PDL1 IC50, Jurkat-PD-1 cells, PE-labeled PD-L1-Ig 20 nM final
# Summary of the method: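 Jurkat cells over-expressing human PD-1, in DMEM/10% FCS, pre-incubated with compound 2 h at 37° C. PE-labeled human PD-L1-Ig (20 nM final) added for 1 h; cells fixed in paraformaldehyde with Hoechst 33342 nuclear stain, washed, and bound fluorescence quantified by high-content imaging.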
row,SMILES,IC50
1,CC[C@H](C)[C@@H]1NC(=O)[C@H](Cc2ccc(-c3ccccc3)cc2)NC(=O)[C@H](C(C)C)NC(=O)[C@H](Cc2cccc(C)c2)NC(=O)[C@H](CC(=O)O)NC(=O)[C@H](Cc2ccc(OCC(=O)O)cc2)NC(=O)[C@H](Cc2cccnc2)NC(=O)CSC[C@@H](C(=O)N[C@@H](C)C(N)=O)NC(=O)[C@H]([C@@H](C)O)NC(=O)[C@H](C(C)C)NC(=O)[C@H](CC(C)C)NC(=O)[C@H](CCN)NC(=O)[C@@H](CC(C)C)NC(=O)[C@H](CCCN)NC1=O [Compound 1224],11.3 nM

# Same assay, conditions: Jurkat-PD-1 cells, PE-labeled PD-L1-Ig 20 nM final; read-out: Jurkat HPD1_PDL1 IC50
row,IC50,SMILES
1,101 nM,C#CCOc1ccc(C[C@@H]2NC(=O)[C@H](CN)NC(=O)CSC[C@@H](C(=O)N[C@@H](CCCN=[N+]=[N-])C(N)=O)NC(=O)[C@H]([C@@H](C)O)NC(=O)[C@H](C(C)C)NC(=O)[C@H](CC3CCCCC3)NC(=O)[C@H](CCN)NC(=O)[C@@H](CC(C)C)NC(=O)[C@H](CCCN)NC(=O)[C@H](CCC(=O)O)NC(=O)[C@H](Cc3ccc(-c4ccccc4)cc3)NC(=O)[C@H](C(C)C)NC(=O)[C@H](Cc3c[nH]c4ccccc34)NC(=O)[C@H](CC(=O)O)NC2=O)cc1 [Compound 1537] ({CH2CO}-[Dap]Y(Propargyl)DWV[Bip]E[Orn][dL][Dab][Cha]VTC[Orn(N3)]-NH2; thioether N-14)
2,47.4 nM,CCCC[C@@H]1NC(=O)[C@H](CCN)NC(=O)[C@@H](CC(C)C)NC(=O)[C@H](CCCN)NC(=O)[C@H]([C@@H](C)CC)NC(=O)[C@H](Cc2ccc(-c3ccccc3)cc2)NC(=O)[C@H](C(C)C)NC(=O)[C@H](Cc2cccc(C)c2)NC(=O)[C@H](CC(=O)O)NC(=O)[C@H](Cc2ccc(C(=O)O)cc2)NC(=O)[C@H](CN)NC(=O)CSC[C@@H](C(=O)N[C@@H](C)C(N)=O)NC(=O)[C@H]([C@@H](C)O)NC(=O)[C@H](C(C)C)NC1=O [Compound 1203]
3,129 nM,CC[C@H](C)[C@@H]1NC(=O)[C@H](Cc2ccc(-c3ccccc3)cc2)NC(=O)[C@H](C(C)C)NC(=O)[C@H](Cc2c[nH]c3ccccc23)NC(=O)[C@H](CC(=O)O)NC(=O)[C@H](Cc2ccc(OCC(=O)O)cc2)NC(=O)[C@H](Cc2ccncc2)NC(=O)CSC[C@@H](C(=O)N[C@@H](C)C(N)=O)NC(=O)[C@H]([C@@H](C)O)NC(=O)[C@H](C(C)C)NC(=O)[C@H](CC(C)C)NC(=O)[C@H](CCN)NC(=O)[C@@H](CC(C)C)NC(=O)[C@H](CCCN)NC1=O [Compound 1057] ({CH2CO}-[4Pal]Y(Carboxymethyl)DWV[Bip]I[Orn][dL][Dab]LVTCA-NH2; thioether N-14)
4,18.8 nM,CC[C@H](NC(=O)[C@@H]1CSCC(=O)N[C@@H](Cc2cnc[nH]2)C(=O)N[C@@H](Cc2ccc(OCC(=O)O)cc2)C(=O)N[C@@H](CC(=O)O)C(=O)N[C@@H](Cc2c[nH]c3ccccc23)C(=O)N[C@@H](C(C)C)C(=O)N[C@@H](Cc2ccc(-c3ccccc3)cc2)C(=O)N[C@@H](C(C)C)C(=O)N[C@@H](CCCN)C(=O)N[C@H](CC(C)C)C(=O)N[C@@H](CCN)C(=O)N[C@@H](CC2CCCCC2)C(=O)N[C@@H](C(C)C)C(=O)N[C@@H](CO)C(=O)N1)C(N)=O [Compound 2564] ({CH2CO}-HY(Carboxymethyl)DWV[Bip]V[Orn][dL][Dab][Cha]VSC[Abu]-NH2; thioether N-14)
5,18.3 nM,CC(C)C[C@H]1NC(=O)[C@H](CCCN)NC(=O)[C@H](C(C)C)NC(=O)[C@H](Cc2ccc(-c3ccccc3)cc2)NC(=O)[C@H](C2CC2)NC(=O)[C@H](Cc2c[nH]c3ccccc23)NC(=O)[C@H](CC(=O)O)NC(=O)[C@H](Cc2ccc(OCC(=O)O)cc2)NC(=O)[C@H](CN)NC(=O)CSC[C@@H](C(=O)N[C@@H](C)C(N)=O)NC(=O)[C@H]([C@@H](C)O)NC(=O)[C@H](C(C)C)NC(=O)[C@H](CC2CCCCC2)NC(=O)[C@H](CCN)NC1=O [Compound 1732] ({CH2CO}-[Dap]Y(Carboxymethyl)DW[Gly(cPr)][Bip]V[Orn][dL][Dab][Cha]VTCA-NH2; thioether N-14)
6,14.6 nM,Cc1cccc(C[C@@H]2NC(=O)[C@H](CC(=O)O)NC(=O)[C@H](Cc3ccc(O)cc3)NC(=O)[C@H](CC(N)=O)NC(=O)CSC[C@@H](C(=O)N[C@@H](C)C(N)=O)NC(=O)[C@H]([C@@H](C)O)NC(=O)[C@H](C(C)C)NC(=O)[C@H](CC3CCCCC3)NC(=O)[C@H](CCN)NC(=O)[C@@H](CC(C)C)NC(=O)[C@H](CCCN)NC(=O)[C@H](CCCNC(N)=O)NC(=O)[C@H](Cc3ccc(-c4ccccc4)cc3)NC(=O)[C@H](CC(C)C)NC2=O)c1 [Compound 1306] ({CH2CO}-NYD[Phe(3-Me)]L[Bip][Cit][Orn][dL][Dab][Cha]VTCA-NH2; thioether N-14)
7,14.8 nM,CCC(C)[C@@H]1NC(=O)[C@H](Cc2ccc(-c3ccccc3)cc2)NC(=O)[C@H](C(C)C)NC(=O)[C@H](Cc2cccc(C)c2)NC(=O)[C@H](CC(=O)O)NC(=O)[C@H](Cc2ccc(C(=O)O)cc2)NC(=O)[C@H](Cc2ccncc2)NC(=O)CSC[C@@H](C(=O)N[C@@H](CCN)C(N)=O)NC(=O)[C@H]([C@@H](C)O)NC(=O)[C@H](C(C)C)NC(=O)[C@H](CC2CCCCC2)NC(=O)[C@H](CCN)NC(=O)[C@@H](CC(C)C)NC(=O)[C@H](CCCN)NC1=O (stereo partly drawn) [Compound 2301]
8,140 nM,CC(C)C[C@@H]1NC(=O)[C@H](CCN)NC(=O)[C@@H](CC(C)C)NC(=O)[C@H](C)NC(=O)[C@H](CCCNC(=N)N)NC(=O)[C@H](Cc2ccc(-c3ccccc3)cc2)NC(=O)[C@H](C(C)C)NC(=O)[C@H](Cc2c[nH]c3ccccc23)NC(=O)[C@H](CC(=O)O)NC(=O)[C@H](Cc2ccc(O)cc2)NC(=O)[C@H](CC(N)=O)NC(=O)CSC[C@@H](C(=O)N[C@@H](C)C(N)=O)NC(=O)[C@H]([C@@H](C)O)NC(=O)[C@H](C(C)C)NC1=O [Compound 1001] ({CH2CO}-NYDWV[Bip]RA[dL][Dab]LVTCA-NH2; thioether N-14)
9,68.9 nM,C#CC[C@H](NC(=O)C[C@H](NC(=O)[C@H](CCN)NC(=O)[C@@H]1CSCC(=O)N[C@@H](Cc2ccncc2)C(=O)N[C@@H](Cc2ccc(C(=O)O)cc2)C(=O)N[C@@H](CC(=O)O)C(=O)N[C@@H](Cc2c[nH]c3ccccc23)C(=O)N[C@@H](C(C)C)C(=O)N[C@@H](Cc2ccc(-c3ccccc3)cc2)C(=O)N[C@@H]([C@@H](C)CC)C(=O)N[C@@H](CCCN)C(=O)N[C@H](CC(C)C)C(=O)N[C@@H](CCN)C(=O)N[C@@H](CC(C)C)C(=O)N[C@@H](C(C)C)C(=O)N[C@@H]([C@@H](C)O)C(=O)N1)C(=O)O)C(=O)O [Compound 1770] ({CH2CO}-[4Pal][Phe(4-COOH)]DWV[Bip]I[Orn][dL][Dab]LVTC[Dab][βAsp][Pra]-OH; thioether N-14)
10,24.3 nM,CC[C@H](C)[C@@H]1NC(=O)[C@H](Cc2ccc(-c3ccccc3)cc2)NC(=O)[C@H](C(C)C)NC(=O)[C@H](Cc2cccc(C)c2)NC(=O)[C@H](CC(=O)O)NC(=O)[C@H](Cc2ccc(C(=O)O)cc2)NC(=O)[C@H](Cc2ccncc2)NC(=O)CSC[C@@H](C(=O)N[C@@H](CCN)C(N)=O)NC(=O)[C@H]([C@@H](C)O)NC(=O)[C@H](C(C)C)NC(=O)[C@H](CC2CCCCC2)NC(=O)[C@H](CCN)NC(=O)[C@@H](CC(C)C)NC(=O)[C@H](CCCN)NC1=O [Compound 2007]
11,9.3 nM,Cc1cccc(C[C@@H]2NC(=O)[C@H](CC(=O)O)NC(=O)[C@H](Cc3ccc(C(=O)O)cc3)NC(=O)[C@H](Cc3ccncc3)NC(=O)CSC[C@@H](C(=O)N[C@@H](C)C(N)=O)NC(=O)[C@H]([C@@H](C)O)NC(=O)[C@H](C(C)C)NC(=O)[C@H](CC3CCCCC3)NC(=O)[C@H](CCN)NC(=O)[C@@H](CC(C)C)NC(=O)[C@H](CCCN)NC(=O)[C@H](c3ccccc3)NC(=O)[C@H](Cc3ccc(-c4ccccc4)cc3)NC(=O)[C@H](C(C)C)NC2=O)c1 [Compound 1616]
